Data taken from ChEMBL document CHEMBL3217497, “Design, synthesis and antiproliferative activity of indole analogues of indanocine” (2013).

How the values were obtained:
Format in all cases: functional
RPMI-8226 = experiment: Cytotoxicity against human RPMI8226 cells assessed as growth inhibition
HL-60(TB) = experiment: Cytotoxicity against human HL-60(TB) cells assessed as growth inhibition
K562 = experiment: Cytotoxicity against human K562 cells assessed as growth inhibition
CCRF-CEM = experiment: Cytotoxicity against human CCRF-CEM cells assessed as growth inhibition
MDA-MB-468 = experiment: Cytotoxicity against human MDA-MB-468 cells assessed as growth inhibition
T47D = experiment: Cytotoxicity against human T47D cells assessed as growth inhibition
BT-549 = experiment: Cytotoxicity against human BT549 cells assessed as growth inhibition
[1] = Cytotoxicity against human Hs 578T cells assessed as growth inhibition
MDA-MB-231 = experiment: Cytotoxicity against human MDA-MB-231 cells assessed as growth inhibition
MCF7 = experiment: Cytotoxicity against human MCF7 cells assessed as growth inhibition
DU-145 = experiment: Cytotoxicity against human DU145 cells assessed as growth inhibition
PC-3 = experiment: Cytotoxicity against human PC3 cells assessed as growth inhibition
TK-10 = experiment: Cytotoxicity against human TK10 cells assessed as growth inhibition
[2] = Cytotoxicity against human UO31 cells assessed as growth inhibition; conditions: UO-31
SN12C = experiment: Cytotoxicity against human SN12C cells assessed as growth inhibition
RXF 393 = experiment: Cytotoxicity against human RXF393 cells assessed as growth inhibition
CAKI-1 = experiment: Cytotoxicity against human CAKI-1 cells assessed as growth inhibition
ACHN = experiment: Cytotoxicity against human ACHN cells assessed as growth inhibition
786-0 = experiment: Cytotoxicity against human 786-0 cells assessed as growth inhibition
A498 = experiment: Cytotoxicity against human A498 cells assessed as growth inhibition
SK-OV-3 = experiment: Cytotoxicity against human SKOV3 cells assessed as growth inhibition
[3] = Cytotoxicity against human NCI-ADR-RES cells assessed as growth inhibition
[4] = Cytotoxicity against human OVCAR8 cells assessed as growth inhibition; conditions: OVCAR-8
[5] = Cytotoxicity against human OVCAR5 cells assessed as growth inhibition; conditions: OVCAR-5
[6] = Cytotoxicity against human OVCAR4 cells assessed as growth inhibition; conditions: OVCAR-4
[7] = Cytotoxicity against human OVCAR3 cells assessed as growth inhibition; conditions: OVCAR-3
[8] = Cytotoxicity against human UACC62 cells assessed as growth inhibition; conditions: UACC-62
IGROV-1 = experiment: Cytotoxicity against human IGROV1 cells assessed as growth inhibition
[9] = Cytotoxicity against human UACC257 cells assessed as growth inhibition; conditions: UACC-257
SK-MEL-5 = experiment: Cytotoxicity against human SK-MEL-5 cells assessed as growth inhibition
SK-MEL-28 = experiment: Cytotoxicity against human SK-MEL-28 cells assessed as growth inhibition
SK-MEL-2 = experiment: Cytotoxicity against human SK-MEL-2 cells assessed as growth inhibition
MDA-MB-435 = experiment: Cytotoxicity against human MDA-MB-435 cells assessed as growth inhibition
M14 = experiment: Cytotoxicity against human M14 cells assessed as growth inhibition
Malme-3M = experiment: Cytotoxicity against human MALME-3M cells assessed as growth inhibition
LOX IMVI = experiment: Cytotoxicity against human LOXIMVI cells assessed as growth inhibition
U-251 = experiment: Cytotoxicity against human U251 cells assessed as growth inhibition
SNB-75 = experiment: Cytotoxicity against human SNB75 cells assessed as growth inhibition
SNB-19 = experiment: Cytotoxicity against human SNB19 cells assessed as growth inhibition
SF-295 = experiment: Cytotoxicity against human SF295 cells assessed as growth inhibition
SF-539 = experiment: Cytotoxicity against human SF539 cells assessed as growth inhibition
SF-268 = experiment: Cytotoxicity against human SF268 cells assessed as growth inhibition
SW-620 = experiment: Cytotoxicity against human SW620 cells assessed as growth inhibition
KM12 = experiment: Cytotoxicity against human KM12 cells assessed as growth inhibition
HT-29 = experiment: Cytotoxicity against human HT-29 cells assessed as growth inhibition
[10] = Cytotoxicity against human HCT15 cells assessed as growth inhibition; conditions: HCT-15
HCT-116 = experiment: Cytotoxicity against human HCT116 cells assessed as growth inhibition
HCC 2998 = experiment: Cytotoxicity against human HCC2998 cells assessed as growth inhibition
NCI-H522 = experiment: Cytotoxicity against human NCI-H522 cells assessed as growth inhibition
COLO 205 = experiment: Cytotoxicity against human COLO205 cells assessed as growth inhibition
NCI-H460 = experiment: Cytotoxicity against human NCI-H460 cells assessed as growth inhibition
NCI-H23 = experiment: Cytotoxicity against human NCI-H23 cells assessed as growth inhibition
NCI-H322M = experiment: Cytotoxicity against human NCI-H322M cells assessed as growth inhibition
NCI-H226 = experiment: Cytotoxicity against human NCI-H226 cells assessed as growth inhibition
HOP-62 = experiment: Cytotoxicity against human HOP62 cells assessed as growth inhibition
HOP-92 = experiment: Cytotoxicity against human HOP92 cells assessed as growth inhibition
A549 = experiment: Cytotoxicity against human A549 cells assessed as growth inhibition
[11] = Cytotoxicity against human EKVX cells assessed as growth inhibition
SR = experiment: Cytotoxicity against human SR cells assessed as growth inhibition
MOLT-4 = experiment: Cytotoxicity against human MOLT4 cells assessed as growth inhibition

Question: Which results are given for `Cc1cc(/C=C2\CCc3c(n(C)c4ccccc34)C2=O)cc(C)c1O`?
Answer: GI50 (RPMI-8226): 760 nM; GI50 (HL-60(TB)): 340 nM; GI50 (K562): 330 nM; GI50 (CCRF-CEM): 740 nM; GI50 (MDA-MB-468): 310 nM; GI50 (T47D): 2060 nM; GI50 (BT-549): 2840 nM; GI50 [1]: 730 nM; GI50 (MDA-MB-231): 1060 nM; GI50 (MCF7): 370 nM; GI50 (DU-145): 1850 nM; GI50 (PC-3): 2490 nM; GI50 (TK-10): 1080 nM; GI50 [2]: 730 nM; GI50 (SN12C): 720 nM; GI50 (RXF 393): 1080 nM; GI50 (CAKI-1): 840 nM; GI50 (ACHN): 830 nM; GI50 (786-0): 3250 nM; GI50 (A498): 3390 nM; GI50 (SK-OV-3): 1520 nM; GI50 [3]: 340 nM; GI50 [4]: 920 nM; GI50 [5]: 5100 nM; GI50 [6]: 3870 nM; GI50 [7]: 350 nM; GI50 [8]: 410 nM; GI50 (IGROV-1): 1590 nM; GI50 [9]: 5830 nM; GI50 (SK-MEL-5): 410 nM; GI50 (SK-MEL-28): 640 nM; GI50 (SK-MEL-2): 330 nM; GI50 (MDA-MB-435): 160 nM; GI50 (M14): 390 nM; GI50 (Malme-3M): 450 nM; GI50 (LOX IMVI): 700 nM; GI50 (U-251): 540 nM; GI50 (SNB-75): 410 nM; GI50 (SNB-19): 630 nM; GI50 (SF-295): 1480 nM; GI50 (SF-539): 700 nM; GI50 (SF-268): 720 nM; GI50 (SW-620): 430 nM; GI50 (KM12): 450 nM; GI50 (HT-29): 4180 nM; GI50 [10]: 510 nM; GI50 (HCT-116): 390 nM; GI50 (HCC 2998): 3610 nM; GI50 (NCI-H522): 140 nM; GI50 (COLO 205): 22900 nM; GI50 (NCI-H460): 390 nM; GI50 (NCI-H23): 2530 nM; GI50 (NCI-H322M): 2730 nM; GI50 (NCI-H226): 4380 nM; GI50 (HOP-62): 720 nM; GI50 (HOP-92): 6560 nM; GI50 (A549): 740 nM; GI50 [11]: 4840 nM; GI50 (SR): 340 nM; GI50 (MOLT-4): 800 nM

Question: Which results are given for `Cc1cc(/C=C2\Cc3c([nH]c4ccccc34)C2=O)cc(C)c1O`?
Answer: GI50 (RPMI-8226): 670 nM; GI50 (HL-60(TB)): 340 nM; GI50 (K562): 330 nM; GI50 (CCRF-CEM): 2180 nM; GI50 (MDA-MB-468): 2430 nM; GI50 (T47D): 12600 nM; GI50 [1]: 550 nM; GI50 (MDA-MB-231): 3190 nM; GI50 (MCF7): 700 nM; GI50 (DU-145): 2050 nM; GI50 (PC-3): 3570 nM; GI50 (TK-10): 6270 nM; GI50 [2]: 320 nM; GI50 (SN12C): 620 nM; GI50 (RXF 393): 1430 nM; GI50 (CAKI-1): 1400 nM; GI50 (786-0): 5960 nM; GI50 (A498): 4860 nM; GI50 (SK-OV-3): 730 nM; GI50 [3]: 350 nM; GI50 [4]: 990 nM; GI50 [5]: 11100 nM; GI50 [6]: 10200 nM; GI50 [7]: 510 nM; GI50 [8]: 4570 nM; GI50 (IGROV-1): 3540 nM; GI50 [9]: 26100 nM; GI50 (SK-MEL-5): 390 nM; GI50 (SK-MEL-28): 730 nM; GI50 (SK-MEL-2): 400 nM; GI50 (MDA-MB-435): 160 nM; GI50 (M14): 410 nM; GI50 (Malme-3M): 310 nM; GI50 (LOX IMVI): 690 nM; GI50 (U-251): 1120 nM; GI50 (SNB-75): 290 nM; GI50 (SNB-19): 710 nM; GI50 (SF-295): 2780 nM; GI50 (SF-539): 550 nM; GI50 (SF-268): 860 nM; GI50 (SW-620): 410 nM; GI50 (KM12): 460 nM; GI50 (HT-29): 15800 nM; GI50 [10]: 560 nM; GI50 (HCT-116): 500 nM; GI50 (HCC 2998): 7490 nM; GI50 (NCI-H522): 90 nM; GI50 (COLO 205): 19500 nM; GI50 (NCI-H460): 420 nM; GI50 (NCI-H23): 1790 nM; GI50 (NCI-H322M): 10400 nM; GI50 (NCI-H226): 9600 nM; GI50 (HOP-62): 650 nM; GI50 (HOP-92): 7470 nM; GI50 (A549): 1580 nM; GI50 [11]: 2590 nM; GI50 (SR): 390 nM; GI50 (MOLT-4): 6010 nM
